Laboratory results: patent US20240409536A1, “COMPOUNDS AND METHODS FOR MODULATING SPLICING” (REMIX THERAPEUTICS INC., priority 2021, published 2024)

Tests used:
HiBiT-tagged MYB protein = experiment: HiBiT protein abundance assay, MYB (K562 HiBiT knock-in cells); type: cell-based, human; settings: 24 hours
Procedure: (§1) Compounds described herein were used to screen for effects on quantitative protein abundance using a HiBit assay system (Promega). Quantitative protein abundance was determined by measuring the protein levels of HiBit-tagged protein targets expressed in cell culture via luminescence using the Nano-Glo HiBiT Lytic Detection System, which uses a split complementation assay format to reconstitute NanoBiT enzyme to generate a luminescent signal. A protein abundance assay was developed such that endogenous protein targets could be modified with the HiBiT peptide tag and their abundance could be assessed after compound treatment. Briefly, K562 cell lines containing a HiBiT-modification were treated with various compounds described herein (e.g., compounds of Formulas (I), (II), or (III)). After treatment for 24 hours, the protein abundance of a specific target was determined by measuring luminescence.
(§2) • Promega Nano-Glo HiBiT Lytic Detection System (cat #N3030) • Corning 384-well TC-treated microplates (cat #3570) • Synthego Engineered Cells Knock-In Clones
(§3) Cells were maintained in IMDM with 10% FBS. Before the assay, cells were diluted with […] growth media (IMDM+1% FBS media) and were seeded in a 384-well plate at a density of 10000 cells/well (for each cell line listed in Table 6). Each compound was prepared as a 10-point 3-fold serial dilution in DMSO with the top dose at a final concentration of 10 μM in the well. Unmodified K562 cells were added at the previously specified density with DMSO to serve as an assay baseline and positive control (PC) and DMSO only with the respective modified cell lines was added to the negative control (NC) columns. Final DMSO concentration was kept at or below 0.25%. Treated cell plates were placed in an incubator at 37° C. with 5% CO2 for 24 hours. After 24 hours, 25 μL of Complete HiBit Lytic reagent was added to each well at room temperature (e.g. one plate requiring 10 mL Lytic Buffer, 100 μL LgBiT Protein, 200 μL Lytic Substrate), shaken for 5 minutes at 600 RPM, then left to sit for 10 minutes for signal to stabilize before reading on a Spark Cyto plate reader (Tecan) with a 500 ms measurement time.
(§4) To determine compound effects on protein abundance of each target in Table 6, the percent response for each respective cell line was calculated at each compound concentration as follows:
(§5) For the normalized response at each concentration, a four-parameter logistical regression was fit to the data and the response was interpolated at the 50% value to determine a concentration for protein abundance at 50% (IC50) the untreated control.

HiBiT-tagged HTT protein = experiment: HiBiT protein abundance assay, HTT (K562 HiBiT knock-in cells); type: cell-based, human; settings: 24 hours
Procedure: as §1, §2, §3, §4, §5

Target C = experiment: HiBiT protein abundance assay, Target C (K562 HiBiT knock-in cells); type: cell-based, human; settings: 24 hours
Procedure: as §2, §3, §4, §5

K562 cells = experiment: Cell Titer Glo 2.0 cell viability assay in K562 cells; settings: 72 hours
HTT mRNA [1] = experiment: Splicing RT-qPCR assay, HTT canonical (CJ) and alternative (AJ) junction mRNA; type: cell-based; settings: Homo sapiens, A673 or K562 cells, 24 hours; for IC50: decrease in canonical junction mRNA; for AC50: increase in alternative junction mRNA
Procedure: (§6) Compounds described herein were used to modulate RNA transcript abundance in cells. The expression of a target mRNA was measured by detecting the formation of an exon-exon junction in the canonical transcript (CJ). A compound mediated exon-inclusion event was detected by observing an increase in formation of a new junction with an alternative exon (AJ). Real-time qPCR assays were used to detect these splicing switches and interrogate the potency of various compounds towards different target genes. A high-throughput real time quantitative PCR (RT-qPCR) assay was developed to measure these two isoforms of the mRNA (CJ and AJ) for exemplary genes, such as HTT, SMN2, and MYB, together with a control housekeeping gene, GAPDH or GUSB or PPIA, used for normalization. Briefly, the A673 or K562 cell line was treated with various compounds described herein (e.g., compounds of Formula (I), (I), or (III)). After treatment, the levels of the HTT, MYB, or SMN2 mRNA targets were determined from each sample of cell lysate by cDNA synthesis followed by qPCR.
(§7) • Cells-to-CT 1-step kit: ThermoFisher A25602, Cells-to-CT lysis reagent: ThermoFisher 4391851C, TaqMan™ Fast Virus 1-Step Master Mix: ThermoFisher 4444436 • GAPDH: VIC-PL, ThermoFisher 4326317E (Assay: Hs99999905_ml)—used for K562/suspension cell lines • GUSB: VIC-PL, ThermoFisher 4326320E (Assay: Hs99999908_ml)—used for K562/suspension cell lines • PPIA: VIC-PL, ThermoFisher 4326316E (Assay: Hs99999904_ml)—used for A673/adherent cell lines
(§8) The A673 cell line was cultured in DMEM with 10% FBS. Cells were diluted with full growth media and plated in a 96-well plate (15,000 cells in 100 ul media per well). The plate was incubated at 37° C. with 5% CO2 for 24 hours to allow cells to adhere. An 11-point 3-fold serial dilution of the compounds was made in DMSO then diluted in media in an intermediate plate. Compounds were transferred from the intermediate plate to the cell plate with the top dose at a final concentration of 10 uM in the well. Final DMSO concentration was kept at or below 0.25%. The cell plate was returned to the incubator at 37° C. with 5% CO2 for an additional 24 hours.
(§9) The K562 cell line was cultured in IMDM with 10% FBS. For K562, cells were diluted with full growth media and plated in either a 96-well plate (50,000 cells in 50 uL media per well) or a 384-well plate (8,000-40,000 cells in 45 uL media per well). An 11-point 3-fold serial dilution of the compounds were made in DMSO then diluted in media in an intermediate plate. Compound was transferred from the intermediate plate to the cell plate with the top dose at a final concentration of 10 uM in the well. Final DMSO concentration was kept at or below 0.25%. Final volume was 100 uL for 96-well plate and 50 uL for 384-well plate. The cell plate was then placed in an incubator at 37° C. with 5% CO2 for 24 hours.
(§10) The cells were then gently washed with 50 uL-100 uL cold PBS before proceeding to addition of lysis buffer. 30 uL-50 uL of room temperature lysis buffer with DNAse I (and optionally RNAsin) was added to each well. Cells were shaken/mixed thoroughly at room temperature for 5-10 minutes for lysis to take place and then 3 uL-5 uL of room temperature stop solution was added and wells were shaken/mixed again. After 2-5 minutes, the cell lysate plate was transferred to ice for RT-qPCR reaction setup. The lysates could also be frozen at −80° C. for later use.
(§11) In some cases, a direct lysis buffer was used. An appropriate volume of 3×lysis buffer (10 mM Tris, 150 mM NaCl, 1.5%-2.5% Igepal and 0.1-1 U/uL RNAsin, pH 7.4) was directly added to either K562 or A673 cells in media and mixed by pipetting 3 times. The plates were then incubated at room temperature with shaking/rocking for 20-50 minutes to allow for lysis to take place. After this time, the cell lysate plate was transferred to ice to set up for the RT-qPCR reactions. The lysates could also be frozen at −80° C. for later use. […]

MYB mRNA [2] = experiment: Splicing RT-qPCR assay, MYB canonical (CJ) and alternative (AJ) junction mRNA; type: cell-based; settings: Homo sapiens, A673 or K562 cells, 24 hours; for IC50: decrease in canonical junction mRNA; for AC50: increase in alternative junction mRNA
Procedure: as §6, §7, §8, §9, §10, §11

HTT mRNA [3] = experiment: Gene panel canonical junction qPCR assay, HTT CJ mRNA decrease; type: cell-based, human; settings: Homo sapiens, canonical junction qPCR, read-out: HTT IC50 (decrease in CJ mRNA levels)
In short: (§12)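 A673 or K562 cells were treated with compound, and lysates underwent cDNA synthesis and qPCR with a CY5 5′-nuclease probe or primer spanning the canonical exon junction. ΔCt versus GAPDH, GUSB or PPIA was normalized to DMSO (2^(−ΔΔCt)), converted to percentage response and fitted four-parameter logistic for IC50.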

MYB mRNA [4] = experiment: Gene panel canonical junction qPCR assay, MYB CJ mRNA decrease; type: cell-based, human; settings: Homo sapiens, canonical junction qPCR, read-out: MYB IC50 (decrease in CJ mRNA levels)
In short: as §12

SMN2 mRNA = experiment: Gene panel canonical junction qPCR assay, SMN2 CJ mRNA decrease; type: cell-based, human; settings: Homo sapiens, canonical junction qPCR, read-out: SMN2 IC50 (decrease in CJ mRNA levels)
In short: as §12

Target C mRNA = experiment: Gene panel canonical junction qPCR assay, Target C CJ mRNA decrease; type: cell-based; settings: Homo sapiens, canonical junction qPCR, read-out: Target C IC50 (decrease in CJ mRNA levels)
In short: as §12

Row | IC50 (HiBiT-tagged MYB protein) [nM] | IC50 (HiBiT-tagged HTT protein) [nM] | IC50 (Target C) [nM] | IC50 (HTT mRNA [1]) [nM] | IC50 (MYB mRNA [2]) [nM] | IC50 (HTT mRNA [3]) [nM] | IC50 (MYB mRNA [4]) [nM] | IC50 (SMN2 mRNA) [nM] | IC50 (Target C mRNA) [nM] | Structure (SMILES) | Viability (K562 cells) | AC50 (HTT mRNA [1]) [nM] | AC50 (MYB mRNA [2]) [nM]
1 | < 100 | > 10000 | > 10000 | – | – | – | – | – | – | COc1cnc2c(C(=O)Nc3cc(F)c4nc(C)cn4c3)ccc(N3CCC(N(C)C)CC3)c2n1 [Compound 224, 8-[4-(dimethylamino)piperidin-1-yl]-N-{8-fluoro-2-methylimidazo[1,2-a]pyridin-6-yl}-2-methoxyquinoxaline-5-carboxamide] | B (B represents 100-1000 nM) | – | –
2 | < 100 | 100 to 1000 | 1000 to 10000 | – | – | – | – | – | – | Cc1nc2c(F)cc(NC(=O)c3ccc(N4CCNCC4)c4ccnnc34)cc2o1 [Compound 117] | B (B represents 100-1000 nM) | – | –
3 | < 100 | 100 to 1000 | 1000 to 10000 | – | – | – | – | – | – | Cc1cn2cc(NC(=O)c3ccc(C4CCNCC4)c4ccnnc34)cc(F)c2n1 [Compound 103] | A (A represents <100 nM) | – | –
4 | – | – | – | 100 to 1000 | < 100 | 100 to 1000 | < 100 | < 100 | 100 to 1000 | Cc1cn2cc(NC(=O)c3ccc([C@@H]4C[C@@H](C)N[C@@H](C)C4)c4nccnc34)cc(F)c2n1 [Compound 380] | B (B represents 100-1000 nM) | 100 to 1000 | < 100
5 | < 100 | 1000 to 10000 | 1000 to 10000 | – | – | – | – | – | – | Cc1cn2cc(NC(=O)c3ccc(N4CCNCC4)c4ccnnc34)cc(Cl)c2n1 [Compound 124] | B (B represents 100-1000 nM) | – | –
6 | – | – | – | 1000 to 10000 | < 100 | 1000 to 10000 | < 100 | < 100 | 1000 to 10000 | COc1ncc2c(N3C[C@H](C)N[C@@H](C)C3)ccc(C(=O)Nc3cn4cc(C)nc4c(OC)n3)c2n1 [Compound 387] | B (B represents 100-1000 nM) | 1000 to 10000 | < 100
7 | 1000 to 10000 | 1000 to 10000 | 1000 to 10000 | – | – | – | – | – | – | Cc1cn2nc(NC(=O)c3ccc(N4CCNCC4)c4ccnnc34)nc2c(C)n1 [Compound 122] | C (C represents 1000-9999 nM) | – | –
8 | – | – | – | 1000 to 10000 | < 100 | 1000 to 10000 | < 100 | < 100 | > 10000 | COc1ccc2c(N3C[C@H](C)N[C@@H](C)C3)ccc(C(=O)Nc3cc(F)c4nc(C)cn4c3)c2n1 [Compound 385] | B (B represents 100-1000 nM) | 1000 to 10000 | < 100
9 | – | – | – | 1000 to 10000 | < 100 | 1000 to 10000 | < 100 | < 100 | > 10000 | COc1nc(NC(=O)c2ccc(N3C[C@H](C)N[C@@H](C)C3)c3cccnc23)cn2cc(C)nc12 [Compound 384] | B (B represents 100-1000 nM) | 1000 to 10000 | < 100
10 | – | – | – | > 10000 | 100 to 1000 | > 10000 | 100 to 1000 | < 100 | > 10000 | COc1nc(NC(=O)c2ccc(N3C[C@H](C)N[C@@H](C)C3)c3nccnc23)cn2cc(C)nc12 [Compound 381] | B (B represents 100-1000 nM) | > 10000 | 100 to 1000
11 | – | – | – | 1000 to 10000 | 100 to 1000 | 1000 to 10000 | 100 to 1000 | < 100 | > 10000 | Cc1cn2cc(NC(=O)c3ccc([C@H]4C[C@@H](C)N[C@@H](C)C4)c4nccnc34)cc(F)c2n1 [Compound 379] | B (B represents 100-1000 nM) | 1000 to 10000 | 100 to 1000
12 | – | – | – | 1000 to 10000 | 100 to 1000 | 1000 to 10000 | 100 to 1000 | < 100 | 1000 to 10000 | Cc1cn2cc(NC(=O)c3ccc(N4C[C@H](C)N[C@@H](C)C4)c4cccnc34)cc(F)c2n1 [Compound 382] | B (B represents 100-1000 nM) | 1000 to 10000 | < 100
13 | – | – | – | 1000 to 10000 | 100 to 1000 | 1000 to 10000 | 100 to 1000 | < 100 | 1000 to 10000 | COc1nc(NC(=O)c2ccc(N3C[C@@H](C)N[C@@H](C)C3)c3cccnc23)cn2cc(C)nc12 [Compound 383] | B (B represents 100-1000 nM) | 1000 to 10000 | 100 to 1000
